Assay [1] deals with T1, Butyrylcholinesterase (BChE) (Homo sapiens, UniProt P06276).
T1 construct: from human serum
Put plainly: Ellman spectrophotometric assay with butyrylthiocholine, Dixon plot. In kind it is biochemical. As to conditions: read-out: IC50 (μmol/l) by spectrophotometry. A general note: DTNB colorimetry detects thiols as they appear.

Assay [2] concerns the target T2, Acetylcholinesterase (AChE) (Homo sapiens, UniProt P22303).
T2 construct: human, recombinant (expressed in HEK 293 cells)
Put plainly: Ellman spectrophotometric assay with acetylthiocholine, Dixon plot. The format is biochemical. As to conditions: read-out: IC50 (μmol/l) by spectrophotometry.

Experimental findings from paper PMC5907398, “Inhibition of Acetylcholinesterase and Butyrylcholinesterase by a Plant Secondary Metabolite Boldine” (BioMed Research International, 2018) are described below.

T1 sequence (P06276 29-602): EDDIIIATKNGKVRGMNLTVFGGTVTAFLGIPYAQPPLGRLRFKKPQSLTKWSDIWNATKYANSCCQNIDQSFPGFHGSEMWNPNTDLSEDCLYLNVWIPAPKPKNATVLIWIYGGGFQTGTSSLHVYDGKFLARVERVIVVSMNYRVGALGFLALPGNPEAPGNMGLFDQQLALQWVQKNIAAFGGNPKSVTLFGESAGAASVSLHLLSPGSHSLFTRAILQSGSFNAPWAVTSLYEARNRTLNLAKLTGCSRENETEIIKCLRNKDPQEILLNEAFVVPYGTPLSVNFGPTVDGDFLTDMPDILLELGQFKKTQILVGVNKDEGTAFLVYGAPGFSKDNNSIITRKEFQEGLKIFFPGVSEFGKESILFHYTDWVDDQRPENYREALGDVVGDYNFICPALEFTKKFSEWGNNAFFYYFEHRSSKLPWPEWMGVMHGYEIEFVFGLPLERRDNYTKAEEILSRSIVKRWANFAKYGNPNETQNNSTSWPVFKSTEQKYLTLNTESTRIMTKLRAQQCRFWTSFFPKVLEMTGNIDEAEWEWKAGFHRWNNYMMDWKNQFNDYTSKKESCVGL
T2 sequence (P22303 32-614): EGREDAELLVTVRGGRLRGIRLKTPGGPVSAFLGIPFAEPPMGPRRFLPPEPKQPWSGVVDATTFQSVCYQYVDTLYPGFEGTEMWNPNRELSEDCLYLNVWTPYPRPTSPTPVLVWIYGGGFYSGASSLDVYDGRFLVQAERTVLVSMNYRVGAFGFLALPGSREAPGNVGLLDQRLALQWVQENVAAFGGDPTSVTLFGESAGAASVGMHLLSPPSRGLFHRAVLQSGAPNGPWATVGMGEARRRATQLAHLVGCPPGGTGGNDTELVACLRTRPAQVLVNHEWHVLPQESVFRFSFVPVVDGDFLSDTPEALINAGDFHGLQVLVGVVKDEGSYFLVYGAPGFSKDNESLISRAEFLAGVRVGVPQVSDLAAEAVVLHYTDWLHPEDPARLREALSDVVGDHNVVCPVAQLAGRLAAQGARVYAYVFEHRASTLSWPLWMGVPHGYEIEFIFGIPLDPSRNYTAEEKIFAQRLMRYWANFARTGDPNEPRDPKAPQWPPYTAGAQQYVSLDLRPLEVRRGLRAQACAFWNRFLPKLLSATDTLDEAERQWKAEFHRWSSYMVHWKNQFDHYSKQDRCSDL

In the case of `COc1cc2c(cc1O)C[C@H]1c3c(cc(O)c(OC)c3-2)CCN1C` [boldine, (S)-2,9-dihydroxy-1,10-dimethoxy-aporphine], the IC50 in assay [1] worked out at 322 µmol/L; in assay [2], 372 µmol/L.
